Experimental findings from patent publication EP0046377A1, “Cycloalkenylcarboxamido derivatives of tetramisole, their preparation and use in medicine” (BEECHAM GROUP PLC, priority 1980, dated 1982) are described below.

The structures appear in SMILES notation. Counter-ions that a name gives are not always drawn.

A word on the inhibition in vivo: it is the drop in the measured response relative to a control, in per cent.

Type in all cases: in vivo
One test relates to Sheep Roundworms. The test can be described thus: Activity against sheep roundworms (mixed roundworm infection). The method, then: (§1) A single subcutaneous injection of 5 mg/kg of the laevo amide of Example 12a, as a solution of its hydrochloride (in a mixture of propylene glycol, 70%; benzyl alcohol, 4%; and made up to 100% with water), to a sheep with a mixed roundworm infection, removed >99.9% of all worms present and was 100% active against lungworm.

The next test relates to Nematospiroides dubius. The test can be described thus: Oral administration to mice infected with Nematospiroides dubius; % reduction in worm numbers versus untreated infected controls. Conditions: % reduction in numbers of worms vs untreated infected controls; for inhibition in vivo at 5 mg/kg / inhibition in vivo at 50 mg/kg: Heligmosomoides polygyrus. The method, then: The compounds of Examples 1 to 15 were each administered orally to mice infected with Nematospiroides dubius at various dosages. Activity was calculated as % reduction in the numbers of worms in treated as opposed to control (untreated, infected) animals.

In the next test the test system is Fluke. The test can be described thus: Test to demonstrate fluke activity in an artificially infected sheep. Conditions: sheep infected with 100 metacercariae, treated orally at 30 mg/kg 4-5 months later. The method, then:
A sheep was artificially infected with 100 metacercariae and 4 - 5 months later was treated, orally, with 6-[3-(3-cyclohexen-1-ylcarboxamido)-phenyl7-2,3,5,6-tetrahydroimidazo [2,1-b]thiazole at 30 mg/kg.

A further test deals with hookworm. The test can be described thus: Activity against dog parasites: hookworm. The note with it: single oral dose of 7.5 mg/kg. The method, then:
(§2) A single oral dose of 7.5 mg/kg of the laevo amide of Example 12a to a dog was 100% effective against ascarids, hookworm and whipworm.

The next test relates to ascarids. Briefly: Activity against dog parasites: ascarids. The note with it: single oral dose of 7.5 mg/kg. The method, then: as §2
The test system of a further test is whipworm. Briefly: Activity against dog parasites: whipworm. Conditions: single oral dose of 7.5 mg/kg. The method, then: as §2
In a further test the test system is adult Brugia pahangi. Briefly: Activity against Brugia pahangi in the cat (macrofilaricidal activity). Conditions: five daily doses at 5 mg/kg s.c. The method, then:
Five daily doses of the laevo amide of Example 12a administered at 5 mg/kg s.c. to a cat infected with adult Brugia pahangi was 100% effective against this parasite.

For a further test, the system named is lungworm. The test can be described thus: Activity against lungworm in a sheep with mixed roundworm infection. Conditions: single subcutaneous injection of 5 mg/kg, solution of hydrochloride. The method, then:
as §1

Consider `O=C(Nc1cccc(C2CN3CCSC3=N2)c1)C1CC=CCC1` (racemic) [Example 1], for which the removal of roundworms result in the test on Sheep Roundworms (single oral dose of 15 mg/kg, aqueous solution of hydrochloride salt) is given as “removed all roundworms present”. This compound also came in with an inhibition in vivo at 5 mg/kg with Nematospiroides dubius (Dose 5 mg/kg) of 55%. For the same compound, the inhibition in vivo at 50 mg/kg in the test on Nematospiroides dubius (Dose 50 mg/kg) was 99%. In addition, in the test with Fluke, the “activity (post-mortem fluke worm counts)” value is given as > 95%. Further, in the test with Fluke (3-4 days after dosing), the Fluke egg counts entry is recorded as “zero”.

Regarding `CC1(C)C=C(C(=O)Nc2cccc(C3CN4CCSC4=N3)c2)C=CC1` (stereo not shown) [Example 2, 6-[3-(3,3-dimethyl-1,5-cyclohexadien-1-ylcarboxamido)phenyl]-2,3,5,6-tetrahydroimidazo[-2,1-b]thiazole hydrochloride], the inhibition in vivo at 5 mg/kg in the test on Nematospiroides dubius (Dose 5 mg/kg) was found to be 57%. This compound also displayed an inhibition in vivo at 50 mg/kg with Nematospiroides dubius (Dose 50 mg/kg) of 99%.

Regarding `O=C(Nc1cccc(C2CN3CCSC3=N2)c1)C1=CCC=CC1` (stereo not shown) [Example 3], the Activity % with Nematospiroides dubius (Dose 5 mg/kg) is on record as 58%; in the test on Nematospiroides dubius (Dose 50 mg/kg), 100%.

In the test with Nematospiroides dubius (Dose 5 mg/kg), `O=C(Nc1cccc(C2CN3CCSC3=N2)c1)C1C=CCC1` (stereo not shown) [Example 4, 6-[3-(2-cyclopenten-1-ylcarboxamido)phenyl]-2,3,5,6-tetrahydroimidazo[2,1-b]thiazole] came in with an inhibition in vivo at 5 mg/kg of 100%. For the same compound, the inhibition in vivo at 50 mg/kg in the test with Nematospiroides dubius (Dose 50 mg/kg) was 100%.

As to `O=C(Nc1cccc(C2CN3CCSC3=N2)c1)C1C=CCCC1` (stereo not shown) [Example 5], in the test on Nematospiroides dubius (Dose 5 mg/kg), the inhibition in vivo at 5 mg/kg turned out to be 65%. In the test on Nematospiroides dubius (Dose 50 mg/kg), this compound had an inhibition in vivo at 50 mg/kg of 100%.

`O=C(Nc1cccc(C2CN3CCSC3=N2)c1)C1=CC2(CC=C1)CCCC2` (stereo not shown) [Example 6] gave an inhibition in vivo at 5 mg/kg in the test with Nematospiroides dubius (Dose 5 mg/kg) of 45%. The compound also displayed an inhibition in vivo at 50 mg/kg with Nematospiroides dubius (Dose 50 mg/kg) of 100%.

For the compound `CC1C=CCCC1C(=O)Nc1cccc(C2CN3CCSC3=N2)c1` (stereo not shown) [Example 7], 5 mg/kg produced 55% inhibition in vivo with Nematospiroides dubius (Dose 5 mg/kg). Besides, the inhibition in vivo at 50 mg/kg with Nematospiroides dubius (Dose 50 mg/kg) is 100%.

Regarding `CC1C=CCC(C(=O)Nc2cccc(C3CN4CCSC4=N3)c2)C1` (stereo not shown) [Example 8], 5 mg/kg produced 59% inhibition in vivo with Nematospiroides dubius (Dose 5 mg/kg). In the test with Nematospiroides dubius (Dose 50 mg/kg), this compound displayed an inhibition in vivo at 50 mg/kg of 99%.

`O=C(Nc1cccc(C2CN3CCSC3=N2)c1)C1=CCCCC1` (stereo not shown) [Example 9] had an inhibition in vivo at 5 mg/kg with Nematospiroides dubius (Dose 5 mg/kg) of 76%. The inhibition in vivo at 50 mg/kg with Nematospiroides dubius (Dose 50 mg/kg) was found to be 99%.

Regarding `O=C(Nc1cccc(C2CN3CCSC3=N2)c1)C1=CCCCCC1` (stereo not shown) [Example 10], the inhibition in vivo at 5 mg/kg with Nematospiroides dubius (Dose 5 mg/kg) came out at 90%. In the test on Nematospiroides dubius (Dose 50 mg/kg), this compound gave an inhibition in vivo at 50 mg/kg of 100%.

Compound `O=C(Nc1cccc(C2CN3CCSC3=N2)c1)C1CC=CC1` (stereo not shown) [Example 11] showed an inhibition in vivo at 5 mg/kg with Nematospiroides dubius (Dose 5 mg/kg) of 84%. In addition, testing at 50 mg/kg in the test with Nematospiroides dubius (Dose 50 mg/kg) gave an inhibition in vivo of 100%.

In the test with Nematospiroides dubius (Dose 5 mg/kg), `O=C(Nc1cccc(C2CN3CCSC3=N2)c1)C1=CC2(CC=CCC2)CC=C1` (stereo not shown) [Example 12] registered an inhibition in vivo at 5 mg/kg of 19%. Testing at 50 mg/kg in the test on Nematospiroides dubius (Dose 50 mg/kg) gave an inhibition in vivo of 94%.

As to `O=C(Nc1cccc(C2CN3CCSC3=N2)c1)C1CC=CCC1` (stereo not drawn) [Example 14a, 6-[3-(3-cyclohexen-1-ylcarboxamido)phenyl] -2,3,5,6-tetrahydroimidazo[2,l-b]thiazole], the effective against hookworm with hookworm is given as 100%. In addition, the worms removed in the test with Sheep Roundworms (single subcutaneous injection of 5 mg/kg, solution of hydrochloride in propylene glycol 70%/benzyl alcohol 4%/water) is on record as > 99.9%. The compound further had an effective against ascarids with ascarids of 100%. Moreover, the effective against whipworm in the test on whipworm came out at 100%. In addition, the “effective against Brugia pahangi” value in the test with adult Brugia pahangi was found to be 100%. Further, the Activity % in the test on Nematospiroides dubius (Dose 2.5 mg/kg) and with Nematospiroides dubius (Dose 10 mg/kg) was 100% each time. The active against lungworm with lungworm was 100%.

In the test on Nematospiroides dubius (Dose 5 mg/kg), `O=C(Nc1cccc(C2CN3C=CSC3=N2)c1)C1CC=CCC1` (stereo not shown) [Example 15] gave an inhibition in vivo at 5 mg/kg of 71%. This compound came in with an inhibition in vivo at 50 mg/kg in the test on Nematospiroides dubius (Dose 50 mg/kg) of 100%.
